In ChEMBL document CHEMBL4371047, “Effect of α-Methoxy Substitution on the Anti-HIV Activity of Dihydropyrimidin-4(3 H)-ones” (J Med Chem, 2019):

Key:
[1] = Therapeutic index, ratio of CC50 for human MT4 cells to EC50 for HIV-1 NL4-3 infected in human MT4 cells; format: toxicity, cell-based; details: read-out: Ratio CC50/EC50
[2] = test system: Human immunodeficiency virus 1; experiment: Antiviral activity against HIV-1 harboring reverse transcriptase K103N mutant infected in human MT4 cells assessed as inhibition of virus-induced cytopathic effect after 5 days by MTT assay; format: functional, organism-based; details: Human immunodeficiency virus 1, MT4, 120 h
[3] = test system: Human immunodeficiency virus type 1 reverse transcriptase (Human immunodeficiency virus 1), Q72547 [K103N]
Description: Inhibition of recombinant HIV-1 His-tagged reverse transcriptase p66/p51 K103N mutant expressed in Escherichia coli assessed as reduction in [3H]dTTP incorporation using poly(rA)/oligo(dT) as template/primer after 20 mins by scintillation counting analysis

[4] = Cytotoxicity against human MT4 cells assessed as reduction in cell viability after 5 days by MTT assay; format: cell-based
[5] = test system: Human immunodeficiency virus type 1 reverse transcriptase (Human immunodeficiency virus 1), Q72547 [L100I]
[6] = target: Human immunodeficiency virus type 1 reverse transcriptase (Human immunodeficiency virus 1) (UniProt Q72547)
Description: Inhibition of recombinant wild type HIV-1 His-tagged reverse transcriptase p66/p51 expressed in Escherichia coli assessed as reduction in [3H]dTTP incorporation using poly(rA)/oligo(dT) as template/primer after 20 mins by scintillation counting analysis

[7] = test system: Human immunodeficiency virus type 1 reverse transcriptase (Human immunodeficiency virus 1), Q72547 [Y181I]
[8] = test system: Human immunodeficiency virus 1; experiment: Antiviral activity against HIV-1 harboring reverse transcriptase Y188L mutant infected in human MT4 cells assessed as inhibition of virus-induced cytopathic effect after 5 days by MTT assay; format: functional, organism-based; details: Human immunodeficiency virus 1, MT4, 120 h
[9] = test system: Human immunodeficiency virus 1; experiment: Antiviral activity against wild type HIV 1 NL4-3 infected in human MT4 cells assessed as inhibition of virus-induced cytopathic effect after 5 days by MTT assay; format: functional, organism-based; details: Human immunodeficiency virus 1, NL4-3, MT4, 120 h
[10] = test system: Human immunodeficiency virus 1; experiment: Resistance index, ratio of ID50 for recombinant HIV-1 His-tagged reverse transcriptase p66/p51 K103N mutant to ID50 for recombinant wild type HIV-1 reverse transcriptase His-tagged p66/p51
[11] = test system: Human immunodeficiency virus 1; experiment: Resistance index, ratio of EC50 for HIV-1 harboring reverse transcriptase K103N mutant to EC50 for wild type HIV-1 NL4-3; format: functional
[12] = test system: Human immunodeficiency virus 1; experiment: Resistance index, ratio of EC50 for HIV-1 harboring reverse transcriptase Y188L mutant to EC50 for wild type HIV-1 NL4-3; format: functional
[13] = test system: Human immunodeficiency virus 1; experiment: Resistance index, ratio of ID50 for recombinant HIV-1 His-tagged reverse transcriptase p66/p51 L100I mutant to ID50 for recombinant wild type HIV-1 reverse transcriptase His-tagged p66/p51
[14] = test system: Human immunodeficiency virus 1; experiment: Resistance index, ratio of EC50 for HIV-1 harboring reverse transcriptase Y181C mutant to EC50 for wild type HIV-1 NL4-3; format: functional
[15] = test system: Human immunodeficiency virus 1; experiment: Antiviral activity against HIV 1 harboring reverse transcriptase Y181C mutant infected in human MT4 cells assessed as inhibition of virus-induced cytopathic effect after 5 days by MTT assay; format: functional, organism-based; details: Human immunodeficiency virus 1, MT4, 120 h
[16] = test system: Human immunodeficiency virus 1; experiment: Resistance index, ratio of ID50 for recombinant HIV-1 His-tagged reverse transcriptase p66/p51 Y181I mutant to ID50 for recombinant wild type HIV-1 reverse transcriptase His-tagged p66/p51

Row | SMILES | selectivity ratio [1] | EC50 [2] [nM] | ID50 [3] [nM] | CC50 at 120 h [4] [nM] | ID50 [5] [nM] | ID50 [6] [nM] | ID50 [7] [nM] | EC50 [8] [nM] | EC50 [9] [nM] | Ratio [10] | Ratio EC50 [11] | Ratio EC50 [12] | Ratio [13] | Ratio EC50 [14] | EC50 [15] [nM] | Ratio [16]
1 | CCC(c1nc(SC2CCCC2)[nH]c(=O)c1C)c1c(F)cccc1Cl (stereo not drawn) | > 5 | > 3000 | 340 | > 3000 | 68 | 4 | – | – | – | – | – | – | – | – | – | –
2 | CCC(c1nc(SC(C)C)[nH]c(=O)c1C)c1c(F)cccc1Cl (stereo not drawn) | > 36 | > 3000 | 420 | > 3000 | 120 | 6 | – | – | – | – | – | – | – | – | – | –
3 | COC(c1nc(SC2CCCC2)[nH]c(=O)c1C)c1c(Cl)cccc1Cl (stereo not drawn) | 3660 | 2900 | 12400 | 29300 | 8400 | 95 | > 40000 | 7200 | 8 | 131 | 362 | 900 | 88 | 500 | 4000 | –
4 | CCCNc1nc(C(OC)c2c(F)cccc2Cl)c(C)c(=O)[nH]1 (stereo not drawn) | 8600 | 150 | 540 | 77400 | 1700 | 65 | 2800 | 5000 | 9 | 8 | 17 | 555 | – | 104 | 940 | 43
5 | CCCN(C)c1nc(C(OC)c2c(F)cccc2Cl)c(C)c(=O)[nH]1 (stereo not drawn) | > 18500 | 12 | 288 | > 74100 | 950 | 26 | 1100 | 120 | 4 | – | 3 | 30 | 36 | 24 | 98 | 42
6 | COC(c1nc(SC(C)C)[nH]c(=O)c1C)c1c(Cl)cccc1Cl (stereo not drawn) | 12900 | 1900 | 9300 | 51700 | 7900 | 59 | > 40000 | 7200 | 4 | 158 | 475 | 1800 | 134 | 800 | 3200 | –
7 | CCCNc1nc(C(OC)c2c(Cl)cccc2Cl)c(C)c(=O)[nH]1 (stereo not drawn) | 3280 | 210 | 1600 | 49200 | 2200 | 120 | 3700 | 7600 | 15 | 13 | 14 | 507 | 18 | 113 | 1700 | 31
8 | CCCN(C)c1nc([C@H](OC)c2c(Cl)cccc2Cl)c(C)c(=O)[nH]1 | 162000 | 2 | 16 | 65000 | 150 | 8 | 340 | 9 | 0.4 | 2 | 5 | 22 | 19 | 7 | 3 | 42
9 | Cc1c([C@@H](C)c2c(F)cccc2F)nc(SC2CCCC2)[nH]c1=O | 3240 | 282 | 540 | 35600 | 2700 | 155 | 4800 | 8200 | 11 | 3 | 26 | 745 | 17 | 116 | 1280 | 31
10 | Cc1c([C@H](C)c2c(F)cccc2F)nc(SC2CCCC2)[nH]c1=O | 185000 | 1 | 10 | 55600 | 90 | 5 | 150 | 140 | 0.3 | 2 | 3 | 467 | 18 | 37 | 11 | 30
11 | CCCN(C)c1nc(C(OC)c2c(F)cccc2F)c(C)c(=O)[nH]1 (stereo not drawn) | > 15600 | 31 | 150 | > 77800 | 1400 | 35 | 1200 | 230 | 5 | 4 | – | 26 | 40 | 20 | 180 | 34
12 | CO[C@H](c1nc(SC(C)C)[nH]c(=O)c1C)c1c(F)cccc1Cl | > 1160 | 380 | 950 | > 40500 | 12300 | 77 | 5800 | 3800 | 35 | 12 | – | 75 | 160 | – | 1350 | 75
13 | COC(c1nc(NC2CCCC2)[nH]c(=O)c1C)c1c(Cl)cccc1Cl (stereo not drawn) | 3400 | 840 | 540 | 34000 | 1900 | 56 | 2400 | 5400 | 10 | 10 | 84 | 540 | 34 | 140 | 1400 | 43
14 | CCC(C)Sc1nc(C(OC)c2c(Cl)cccc2Cl)c(C)c(=O)[nH]1 (stereo not drawn) | 36400 | 770 | 3700 | 32800 | 5200 | 15 | > 40000 | 5800 | 0.9 | 247 | 856 | 6444 | 347 | 3111 | 2800 | –
15 | CO[C@@H](c1nc(SC(C)C)[nH]c(=O)c1C)c1c(F)cccc1Cl | > 722000 | 0.6 | 35 | > 65000 | 400 | 2 | 1100 | 1 | 0.09 | 17 | 10 | 11 | 200 | 10 | 0.9 | 550
16 | COC(c1nc(NC(C)C)[nH]c(=O)c1C)c1c(Cl)cccc1Cl (stereo not drawn) | 651 | 3000 | 5200 | 62500 | 3800 | 340 | 7800 | 12200 | 96 | 15 | 31 | 127 | 11 | 60 | 5800 | 23
17 | Cc1c(C(C)c2c(F)cccc2F)nc(SC(C)C)[nH]c1=O (stereo not drawn) | > 3000 | – | – | > 3000 | – | – | – | – | – | – | – | – | – | – | – | –
18 | CCCN(C)c1nc([C@@H](OC)c2c(Cl)cccc2Cl)c(C)c(=O)[nH]1 | 3010 | 185 | 438 | 45200 | 4300 | 177 | 8700 | 380 | 15 | 2 | 12 | 25 | 24 | 12 | 185 | 49
19 | CCC(C)Sc1nc(C(CC)c2c(F)cccc2Cl)c(C)c(=O)[nH]1 (stereo not drawn) | > 56 | > 3000 | 450 | > 3000 | 120 | 2 | – | – | – | – | – | – | – | – | – | –
20 | COC(c1nc(NC(C)C)[nH]c(=O)c1C)c1c(F)cccc1Cl (stereo not drawn) | > 2670 | 620 | 1600 | > 77400 | 1900 | 110 | 3200 | 8500 | 29 | 14 | 21 | 293 | 17 | 48 | 1400 | 29
